# Test results: publication PMC8286840, “Identifying SARS-CoV-2 antiviral compounds by screening for small molecule inhibitors of Nsp3 papain-like protease” (Biochemical Journal, 2021)
# Where a name gives a salt, the structure may show the parent alone. Read-outs that look alike come from different tables or passages of the source.
# How the values were obtained:
# [1] = molecular target: T1, SARS-CoV-2 PLpro (nsp3 1564–1878) (Severe acute respiratory syndrome coronavirus 2, UniProt P0DTD1); assay: biochemical; set-up: FRET-quenched peptide (Pro3) cleavage by PLpro, 10 min pre-incubation, slope over 20 min, normalised to no-compound control; details: read-out: % of control remaining
# [2] = molecular target: T1, SARS-CoV-2 PLpro (nsp3 1564–1878); assay: biochemical; set-up: FRET-quenched peptide (Pro3) cleavage by PLpro, 10 min pre-incubation, slope over 20 min, normalised to no-compound control; details: read-out: % of control remaining; remark: listed apart in the source
structure (smiles),measurement,setting,value
CNC(=O)c1cc(Oc2ccc(NC(=O)Nc3ccc(Cl)c(C(F)(F)F)c3)cc2)ccn1 [Sorafenib],remaining activity at 1.25 µM,"[1]; Well no.=2941, low concentration screen",101%
same,remaining activity at 3.75 µM,"[2]; Well no.=2941, high concentration screen",97.8%
OC[C@@H](O)[C@@H](O)[C@H](O)[C@@H](O)CO [Sorbitol],remaining activity at 1.25 µM,"[1]; Well no.=8244, low concentration screen",100%
same,remaining activity at 3.75 µM,"[2]; Well no.=8244, high concentration screen",99.8%
CCOc1ccc(Cc2cc([C@@H]3O[C@H](SC)[C@@H](O)[C@H](O)[C@H]3O)ccc2Cl)cc1 [Sotagliflozin (LX4211)],remaining activity at 1.25 µM,"[1]; Well no.=8820, low concentration screen",97.4%
same,remaining activity at 3.75 µM,"[2]; Well no.=8820, high concentration screen",95.6%
CC(C)NCC(O)c1ccc(NS(C)(=O)=O)cc1 (centres unmarked) [Sotalol (hydrochloride)],remaining activity at 1.25 µM,"[1]; Well no.=6363, low concentration screen",100%
same,remaining activity at 3.75 µM,"[2]; Well no.=6363, high concentration screen",98.6%
CC(C)NCC(O)c1ccc(NS(C)(=O)=O)cc1 (centres unmarked) [Sotalol.HCl],remaining activity at 1.25 µM,"[1]; Well no.=1785, low concentration screen",103%
same,remaining activity at 3.75 µM,"[2]; Well no.=1785, high concentration screen",102%
CN1CCN(c2nc(C3=C(c4c[nH]c5ccccc45)C(=O)NC3=O)c3ccccc3n2)CC1 [Sotrastaurin (AEB071)],remaining activity at 1.25 µM,"[1]; Well no.=4747, low concentration screen",105%
same,remaining activity at 3.75 µM,"[2]; Well no.=4747, high concentration screen",109%
C[C@@H]1CN(c2c(F)c(N)c3c(=O)c(C(=O)O)cn(C4CC4)c3c2F)C[C@H](C)N1 [Sparfloxacin],remaining activity at 1.25 µM,"[1]; Well no.=2251, low concentration screen",95.3%
same,remaining activity at 3.75 µM,"[2]; Well no.=2251, high concentration screen",97.4%
CNC1C(O)C(NC)C2OC3(O)C(=O)CC(C)OC3OC2C1O (centres unmarked) [Spectinomycin.2HCl],remaining activity at 1.25 µM,"[1]; Well no.=1587, low concentration screen",101%
same,remaining activity at 3.75 µM,"[2]; Well no.=1587, high concentration screen",101%
CN[C@@H]1[C@H](O)[C@H](NC)[C@H]2O[C@@]3(O)C(=O)C[C@@H](C)O[C@H]3O[C@@H]2[C@H]1O [Spectinomycin],remaining activity at 1.25 µM,"[1]; Well no.=3174, low concentration screen",103%
same,remaining activity at 3.75 µM,"[2]; Well no.=3174, high concentration screen",110%
NCCCCNCCCN [Spermidine trihydrochloride],remaining activity at 1.25 µM,"[1]; Well no.=1168, low concentration screen",102%
same,remaining activity at 3.75 µM,"[2]; Well no.=1168, high concentration screen",104%
NCCCCNCCCN [Spermidine],remaining activity at 1.25 µM,"[1]; Well no.=7069, low concentration screen",107%
same,remaining activity at 3.75 µM,"[2]; Well no.=7069, high concentration screen",105%
NCCCNCCCCNCCCN [Spermine tetrahydrochloride],remaining activity at 1.25 µM,"[1]; Well no.=1312, low concentration screen",100%
same,remaining activity at 3.75 µM,"[2]; Well no.=1312, high concentration screen",101%
CCCCCCCCCCCCC/C=C/[C@@H](O)[C@@H](N)CO [Sphingosine],remaining activity at 1.25 µM,"[1]; Well no.=4361, low concentration screen",101%
same,remaining activity at 3.75 µM,"[2]; Well no.=1172, high concentration screen",104%
same,remaining activity at 3.75 µM,"[2]; Well no.=4361, high concentration screen",93.6%
O=C(CCCN1CCC2(CC1)C(=O)NCN2c1ccccc1)c1ccc(F)cc1 [Spiperone hydrochloride],remaining activity at 1.25 µM,"[1]; Well no.=1268, low concentration screen",105%
same,remaining activity at 3.75 µM,"[2]; Well no.=1268, high concentration screen",105%
CC(=O)S[C@@H]1CC2=CC(=O)CC[C@]2(C)[C@H]2CC[C@@]3(C)[C@@H](CC[C@@]34CCC(=O)O4)[C@H]12 [Spironolactone],remaining activity at 1.25 µM,"[1]; Well no.=1266, low concentration screen",97.8%
same,remaining activity at 1.25 µM,"[1]; Well no.=2253, low concentration screen",93%
same,remaining activity at 3.75 µM,"[2]; Well no.=1266, high concentration screen",93.5%
same,remaining activity at 3.75 µM,"[2]; Well no.=2253, high concentration screen",82.7%
O=C1NCN(c2ccccc2)C12CCN(CC1COc3ccccc3O1)CC2 (centres unmarked) [Spiroxatrine],remaining activity at 1.25 µM,"[1]; Well no.=1277, low concentration screen",99.7%
same,remaining activity at 3.75 µM,"[2]; Well no.=1277, high concentration screen",102%
O=C1CCc2c(ccc3ccccc23)O1 [Splitomicin],remaining activity at 1.25 µM,"[1]; Well no.=5525, low concentration screen",105%
same,remaining activity at 3.75 µM,"[2]; Well no.=5525, high concentration screen",120%
CC(C)=CCC/C(C)=C/CC/C(C)=C/CC/C=C(\C)CC/C=C(\C)CCC=C(C)C [Squalene],remaining activity at 1.25 µM,"[1]; Well no.=7255, low concentration screen",98.6%
same,remaining activity at 3.75 µM,"[2]; Well no.=7255, high concentration screen",96.6%
COc1cc2ncnc(Nc3ccc(Oc4ccccc4)cc3)c2cc1OC [Src Kinase Inhibitor I],remaining activity at 1.25 µM,"[1]; Well no.=2563, low concentration screen",99.2%
same,remaining activity at 3.75 µM,"[2]; Well no.=2563, high concentration screen",99.3%
C[N+]1(C)CCC[C@H]1C(=O)[O-] [Stachydrine hydrochloride],remaining activity at 1.25 µM,"[1]; Well no.=8032, low concentration screen",98.3%
same,remaining activity at 3.75 µM,"[2]; Well no.=8032, high concentration screen",96.9%
C[N+]1(C)CCC[C@H]1C(=O)[O-] [Stachydrine],remaining activity at 1.25 µM,"[1]; Well no.=6917, low concentration screen",109%
same,remaining activity at 1.25 µM,"[1]; Well no.=7414, low concentration screen",104%
same,remaining activity at 3.75 µM,"[2]; Well no.=6917, high concentration screen",93.7%
same,remaining activity at 3.75 µM,"[2]; Well no.=7414, high concentration screen",102%
C[C@]12Cc3c[nH]nc3C[C@@H]1CC[C@@H]1[C@@H]2CC[C@@]2(C)[C@H]1CC[C@]2(C)O [Stanozolol],remaining activity at 1.25 µM,[1],94%
same,remaining activity at 3.75 µM,[2],95.3%
O=[N+]([O-])c1ccc2c(c1)S(=O)(=O)C=C2 [Stattic],remaining activity at 1.25 µM,"[1]; Well no.=4748, low concentration screen",104%
same,remaining activity at 3.75 µM,"[2]; Well no.=4748, high concentration screen",104%
"CN[C@@H]1C[C@H]2O[C@@](C)([C@@H]1OC)n1c3ccccc3c3c4c(c5c6ccccc6n2c5c31)C(=O)NC4 [Staurosporine, Streptomyces sp.]",remaining activity at 1.25 µM,"[1]; Well no.=2656, low concentration screen",94.8%
same,remaining activity at 1.25 µM,"[1]; Well no.=2661, low concentration screen",89.3%
same,remaining activity at 3.75 µM,"[2]; Well no.=2656, high concentration screen",95%
same,remaining activity at 3.75 µM,"[2]; Well no.=2661, high concentration screen",84.8%
Cc1cn([C@H]2C=C[C@@H](CO)O2)c(=O)[nH]c1=O [Stavudine],remaining activity at 1.25 µM,"[1]; Well no.=7916, low concentration screen",99.6%
same,remaining activity at 3.75 µM,"[2]; Well no.=7916, high concentration screen",96.8%
COc1cc2ncnc(Nc3ccc(Cl)cc3Cl)c2cc1OC [Ste11 MAPKKK Activation Inhibitor],remaining activity at 1.25 µM,"[1]; Well no.=2673, low concentration screen",96.8%
same,remaining activity at 3.75 µM,"[2]; Well no.=2673, high concentration screen",99.8%
CCCCCCCCCCCCCCCCCC(=O)O [Stearic acid],remaining activity at 1.25 µM,"[1]; Well no.=6963, low concentration screen",98.8%
same,remaining activity at 3.75 µM,"[2]; Well no.=6963, high concentration screen",102%
CC(C)n1cnc2c(NCCc3ccc(O)cc3)nc(-c3csc4ccccc34)nc21 [StemRegenin 1],remaining activity at 1.25 µM,"[1]; Well no.=4827, low concentration screen",101%
same,remaining activity at 3.75 µM,"[2]; Well no.=4827, high concentration screen",98.2%
CN[C@@H]1[C@H](O[C@H]2[C@H](O[C@H]3[C@H](O)[C@@H](O)[C@H](N=C(N)N)[C@@H](O)[C@@H]3N=C(N)N)O[C@@H](C)[C@]2(O)C=O)O[C@@H](CO)[C@H](O)[C@H]1O [Streptomycin],remaining activity at 1.25 µM,"[1]; Well no.=2285, low concentration screen",97.7%
same,remaining activity at 3.75 µM,"[2]; Well no.=2285, high concentration screen",97.7%
COC1=C(N)C(=O)c2nc(-c3nc(C(=O)O)c(C)c(-c4ccc(OC)c(OC)c4O)c3N)ccc2C1=O [Streptonigrin],remaining activity at 1.25 µM,"[1]; Well no.=3304, low concentration screen",96.9%
same,remaining activity at 3.75 µM,"[2]; Well no.=3304, high concentration screen",96.9%
CN(N=O)C(=O)N[C@@H](C=O)[C@@H](O)[C@H](O)[C@H](O)CO [Streptozocin],remaining activity at 1.25 µM,"[1]; Well no.=3317, low concentration screen",100%
same,remaining activity at 3.75 µM,"[2]; Well no.=3317, high concentration screen",103%
O=C(O)CCC(=O)O [Succinic acid],remaining activity at 1.25 µM,"[1]; Well no.=7353, low concentration screen",106%
same,remaining activity at 3.75 µM,"[2]; Well no.=7353, high concentration screen",106%
C[N+](C)(C)CCOC(=O)CCC(=O)OCC[N+](C)(C)C [Succinylcholine chloride],remaining activity at 1.25 µM,"[1]; Well no.=1318, low concentration screen",103%
same,remaining activity at 1.25 µM,"[1]; Well no.=6064, low concentration screen",99%
same,remaining activity at 3.75 µM,"[2]; Well no.=1318, high concentration screen",103%
same,remaining activity at 3.75 µM,"[2]; Well no.=6064, high concentration screen",96.6%
C[N+](C)(C)CCOC(=O)CCC(=O)OCC[N+](C)(C)C [Succinylcholine],remaining activity at 1.25 µM,"[1]; Well no.=2294, low concentration screen",90.2%
same,remaining activity at 3.75 µM,"[2]; Well no.=2294, high concentration screen",95.9%
